Key:
southern crabgrass [1] = test: Test Example 5: herbicidal effect by foliage application, plastic box (Table 20, symbol F); assay type: in vivo, southern crabgrass (Digitaria ciliaris); settings: foliage application, AAH 320 g/ha, evaluated three weeks after application
Procedure, shortened: (§1)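 Post-emergence foliar test in sterilized diluvial soil. Compound applied as water-diluted emulsion at a predetermined rate to 14-day-old plants; evaluation at three weeks.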

southern crabgrass [2] = test: Test Example 4: herbicidal effect by soil treatment (Table 19, symbol F); assay type: in vivo, southern crabgrass (Digitaria ciliaris); settings: amount of applied herbicide 320 g/ha
Procedure, shortened: (§2)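 Scoring uses the grading scale of an earlier test, three weeks post-application. Treatment consists of spraying a diluted emulsion formulation across the surface of sterilized diluvial soil in which seeds are buried near 1.5 cm deep; boxes are kept in a greenhouse between 25° C. and 30° C.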

blackgrass = test: Test Example 4: herbicidal effect by soil treatment (Table 19, symbol J); assay type: in vivo, blackgrass (Alopecurus myosuroides); settings: amount of applied herbicide 320 g/ha
Procedure, shortened: as §2

lambsquarters [3] = test: Test Example 5: herbicidal effect by foliage application, plastic box (Table 20, symbol O); assay type: in vivo, lambsquarters (Chenopodium album); settings: foliage application, AAH 320 g/ha, evaluated three weeks after application
Procedure, shortened: as §1

wild oat = test: Test Example 4: herbicidal effect by soil treatment (Table 19, symbol I); assay type: in vivo, wild oat (Avena fatua); settings: amount of applied herbicide 320 g/ha
Procedure, shortened: as §2

windgrass = test: Test Example 5: herbicidal effect by foliage application, plastic box (Table 20, symbol L); assay type: in vivo, windgrass (Apera spica-venti); settings: foliage application, AAH 320 g/ha, evaluated three weeks after application
Procedure, shortened: as §1

lambsquarters [4] = test: Test Example 4: herbicidal effect by soil treatment (Table 19, symbol O); assay type: in vivo, lambsquarters (Chenopodium album); settings: amount of applied herbicide 320 g/ha
Procedure, shortened: as §2

green foxtail = test: Test Example 4: herbicidal effect by soil treatment (Table 19, symbol G); assay type: in vivo, green foxtail (Setaria viridis); settings: amount of applied herbicide 320 g/ha
Procedure, shortened: as §2

velvetleaf [5] = test: Test Example 5: herbicidal effect by foliage application, plastic box (Table 20, symbol M); assay type: in vivo, velvetleaf (Abutilon theophrasti); settings: foliage application, AAH 320 g/ha, evaluated three weeks after application
Procedure, shortened: as §1

barnyard grass = test: Test Example 4: herbicidal effect by soil treatment (Table 19, symbol H); assay type: in vivo, barnyard grass (Echinochloa crus-galli); settings: amount of applied herbicide 320 g/ha
Procedure, shortened: as §2

chickweed [6] = test: Test Example 4: herbicidal effect by soil treatment (Table 19, symbol P); assay type: in vivo, common chickweed (Stellaria media); settings: amount of applied herbicide 320 g/ha
Procedure, shortened: as §2

oval-leafed pondweed = test: Test Example 1: herbicidal activity, application before weed generation under submerged conditions (Table 16, symbol C); assay type: in vivo, oval-leafed pondweed (Monochoria vaginalis); settings: 320 g/ha applied herbicide
Procedure, shortened: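 Alluvial soil was flooded to 4 cm depth, weed seeds were sown mixed and 2.5-leaf rice seedlings were transplanted. On sowing day, the compound's emulsion, diluted in water to a set dose, was applied to the water surface. Plants grew at 25–30 °C and were scored 0–5 after three weeks.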

chickweed [7] = test: Test Example 5: herbicidal effect by foliage application, plastic box (Table 20, symbol P); assay type: in vivo, common chickweed (Stellaria media); settings: foliage application, AAH 320 g/ha, evaluated three weeks after application
Procedure, shortened: as §1

Japanese bulrush = test: Test Example 2: herbicidal activity, application during weed generation under submerged conditions (Table 17, symbol B); assay type: in vivo, Japanese bulrush (Schoenoplectus juncoides); settings: AAH 320 g/ha; application during weed generation, submerged conditions
Procedure, shortened: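 Mixed weed seedlings in alluvial soil under a 4 cm water layer, greenhouse-grown at 25–30° C. Compound given as a diluted emulsion into the floodwater at the 1–2 leaf stage; response graded after three weeks.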

velvetleaf [8] = test: Test Example 4: herbicidal effect by soil treatment (Table 19, symbol M); assay type: in vivo, velvetleaf (Abutilon theophrasti); settings: amount of applied herbicide 320 g/ha
Procedure, shortened: as §2

persian speedwell [9] = test: Test Example 4: herbicidal effect by soil treatment (Table 19, symbol R); assay type: in vivo, Persian speedwell (Veronica persica); settings: amount of applied herbicide 320 g/ha
Procedure, shortened: as §2

persian speedwell [10] = test: Test Example 5: herbicidal effect by foliage application, plastic box (Table 20, symbol R); assay type: in vivo, Persian speedwell (Veronica persica); settings: foliage application, AAH 320 g/ha, evaluated three weeks after application
Procedure, shortened: as §1

Row | SMILES | F: southern crabgrass, herbicidal effect (criteria 0-5) (southern crabgrass [1]) | herbicidal effect on F: southern crabgrass (southern crabgrass [2]) | herbicidal effect on J: blackgrass (blackgrass) | O: lambsquarters, herbicidal effect (criteria 0-5) (lambsquarters [3]) | herbicidal effect on I: wild oat (wild oat) | L: windgrass, herbicidal effect (criteria 0-5) (windgrass) | herbicidal effect on O: lambsquarters (lambsquarters [4]) | herbicidal effect on G: green foxtail (green foxtail) | M: velvetleaf, herbicidal effect (criteria 0-5) (velvetleaf [5]) | herbicidal effect on H: barnyard grass (barnyard grass) | herbicidal effect on P: chickweed (chickweed [6]) | Herbicidal effect on C: oval-leafed pondweed (grade 0-5) (oval-leafed pondweed) | P: chickweed, herbicidal effect (criteria 0-5) (chickweed [7]) | herbicidal effect rating, B: Japanese bulrush (Japanese bulrush) | herbicidal effect on M: velvetleaf (velvetleaf [8]) | herbicidal effect on R: persian speedwell (persian speedwell [9]) | R: persian speedwell, herbicidal effect (criteria 0-5) (persian speedwell [10])
1 | Cc1nn(C)c(=O)c(-c2c(-c3ccc(OC(F)F)cc3)sc3ccc(F)cc23)c1OC(=O)C1CCCC1 [2-280] | 3 (Herbicidal rate of 40% or more and less than 70%) | 0 (Herbicidal rate of 5% or less (almost no effect)) | 1 (Herbicidal rate of 5% or more and less than 20%) | 5 (Herbicidal rate of 90% or more (almost completely withered)) | 0 (Herbicidal rate of 5% or less (almost no effect)) | 3 (Herbicidal rate of 40% or more and less than 70%) | 5 (Herbicidal rate of 90% or more (almost completely withered)) | 2 (Herbicidal rate of 20% or more and less than 40%) | 5 (Herbicidal rate of 90% or more (almost completely withered)) | 3 (Herbicidal rate of 40% or more and less than 70%) | 1 (Herbicidal rate of 5% or more and less than 20%) | 0 (Herbicidal rate of 5% or less (almost no effect)) | 5 (Herbicidal rate of 90% or more (almost completely withered)) | 3 (Herbicidal rate of 40% or more and less than 70%) | 3 (Herbicidal rate of 40% or more and less than 70%) | 4 (Herbicidal rate of 70% or more and less than 90%) | 5 (Herbicidal rate of 90% or more (almost completely withered))
2 | Cc1nn(C)c(=O)c(-c2c(-c3ccc(OC(F)F)cc3)sc3ccc(F)cc23)c1OC(=O)COc1ccccc1 [2-284] | 3 (Herbicidal rate of 40% or more and less than 70%) | 4 (Herbicidal rate of 70% or more and less than 90%) | 5 (Herbicidal rate of 90% or more (almost completely withered)) | 5 (Herbicidal rate of 90% or more (almost completely withered)) | 3 (Herbicidal rate of 40% or more and less than 70%) | 4 (Herbicidal rate of 70% or more and less than 90%) | 5 (Herbicidal rate of 90% or more (almost completely withered)) | 5 (Herbicidal rate of 90% or more (almost completely withered)) | 5 (Herbicidal rate of 90% or more (almost completely withered)) | 5 (Herbicidal rate of 90% or more (almost completely withered)) | 4 (Herbicidal rate of 70% or more and less than 90%) | 3 (Herbicidal rate of 40% or more and less than 70%) | 5 (Herbicidal rate of 90% or more (almost completely withered)) | 3 (Herbicidal rate of 40% or more and less than 70%) | 5 (Herbicidal rate of 90% or more (almost completely withered)) | 5 (Herbicidal rate of 90% or more (almost completely withered)) | 5 (Herbicidal rate of 90% or more (almost completely withered))

— US20230085307A1, “PYRIDAZINONE COMPOUND AND HERBICIDE” (NISSAN CHEMICAL CORPORATION, priority 2019, published 2023)
